Measurements from PMC5620576 (Pharmaceutics, 2017).
Values joined by “and” are separate entries in the source; they are usually repeats but may differ in a detail not shown here. Identical values can stand only once. “Also recorded” adds a separate entry of the source.

Assays:
[1] = Predicted physicochemical properties (VCCLAB, MarvinSketch, GastroPlus); settings: predicted values
Description: LogP and LogS values of DoxQ were predicted using an online computer software (VCCLAB, Virtual Computational Chemistry Laboratory). pKa, logP, logD at pH 7.4, intrinsic solubility, and solubility at pH 7.4 were calculated using MarvinSketch v. […] 9.0.0007 (Simulations Plus, Inc., Lancaster, CA, USA). […] The melting point of DoxQ was experimentally determined by MEL-TEMPII melting point apparatus from Laboratory Devices (Holliston, MA, USA).

[2] = Intestinal lymphatic delivery, mesenteric lymph duct cannulated rat model; format: in vivo, male Sprague–Dawley rats; settings: over one hour after oral 10 mg/kg, n = 3
Source text: The intestinal transport of DoxQ via lymphatics was examined in vivo by two methods.
Six male Sprague–Dawley rats (~300 g) were obtained from Charles River Labs (Montreal, QC, Canada) and given food (Purina Rat Chow 5001) and water ad libitum in the animal facility for at least three days before use. On the day of surgical operation, rats were anesthetized by isoflurane and the abdominal hair was shaved. Rats were maintained under inhaled anesthesia on a warm surgical table. A ~2.5 cm abdominal midline skin incision was made and extended through the musculature using blunt dissection beginning the incision at a point just above the xyphoid cartilage and proceeding distally. […] The lymph duct was isolated from the surrounding connective tissue and a small incision was made with a bent 23 G needle in the ventral wall of the lymph. A catheter was inserted through the incision and secured by placing a small cellulose patch with a drop of Vetbond^TM over the point of insertion into the lymph duct. When a gradual and continuous flow of lymph was observed, an initial lymph sample was collected into a normal microtube. […] Thereafter, lymph samples were collected over one hour after dosing. The animals were euthanized after the last lymph sample collection.

[3] = test system: rat cardiac Troponin-I (cTnI); experiment: Cardiac toxicity, serum cardiac Troponin-I (cTnI) ELISA after single IV dose; format: in vivo; settings: for cTnI concentrations in serum: 12, 24 and 48 h after single IV 10 mg/kg Dox or equimolar DoxQ
Description: Samples were centrifuged to obtain the serum and stored at −20 °C in a freezer until analysis. On the day of the analysis, cTnI concentrations were measured in serum samples following the manufacturer’s instructions. The area under the effect curve (AUEC) was calculated for cTnI concentrations at 12–48 h post-dosing using the trapezoidal rule by WinNonlin® software.

[4] = Renal toxicity, urinary output over 24 h after single IV dose; format: in vivo, rat; settings: 24 h after single IV 10 mg/kg Dox or equimolar DoxQ
Description: The total urine volume excreted over 24 h post-dosing was compared to the total urine volume excreted over 24 h pre-dosing.

[5] = test system: β-N-acetylglucosaminidase (NAG); experiment: Renal toxicity, β-N-acetylglucosaminidase (NAG) in rat urine after single IV dose; format: in vivo; settings: after single IV 10 mg/kg Dox or equimolar DoxQ
Description: Urine samples from pharmacokinetics experiments were collected from metabolic cages at 0 h, 12 h, 24 h, and 48 h and stored at −20 °C until analysis. Concentrations of NAG urine samples were measured using an assay kit from ALPCO Diagnostics (Salem, NH, USA, cat. No. 73-1290050) on a Medica EasyRA automated clinical chemistry analyzer (Medica Corporation, Bedford, MA, USA).

[6] = test system: CYP3A4; parameters: method as in PMID 28462502; settings: in vitro; cited from earlier work
[7] = test system: P–gp-positive (MDCK–MDR) cells; parameters: method as in PMID 28462502; settings: cited from earlier work
[8] = test system: triple negative murine breast cancer cell line; parameters: method as in PMID 28462502; settings: cited from earlier work
[9] = test system: rat cardiomyocytes; parameters: method as in PMID 28462502; settings: cited from earlier work
[10] = test system: human cardiomyocytes; parameters: method as in PMID 28462502; settings: cited from earlier work
[11] = test system: CYP1B1; parameters: method as in PMID 28462502; settings: expression and catalytic activity; cited from earlier work
[12] = parameters: method as in PMID 28462502; settings: in vitro; cited from earlier work
[13] = in vivo; settings: male, Sprague-Dawley, rat, iv, 10 mg/kg
[14] = Pharmacokinetic study after IV administration, rat serum and urine; settings: for fe, fraction excreted unchanged in urine: administered compound intact in urine; for CLhepatic: n = 3, CLtot minus CLrenal
[15] = in vivo; settings: male, Sprague-Dawley, rat, serum, po, 10 mg/kg, F, Dox after PO Dox 10 mg/kg, n = 3
[16] = administered compound intact in rat serum, IV Dox 10 mg/kg or equimolar DoxQ, mean ± SEM
[17] = IV Dox 10 mg/kg or equimolar DoxQ
[18] = administered compound intact, IV Dox 10 mg/kg or equimolar DoxQ
[19] = male, Sprague-Dawley, rat, serum, iv, 10 mg/kg

Structure (SMILES): COc1cccc2c1C(=O)c1c(O)c3c(c(O)c1C2=O)CC(O)(C(=O)CO)CC3OC1CC(NC(=O)CNC(=O)Oc2ccc(-c3oc4cc(O)cc(O)c4c(=O)c3O)cc2O)C(O)C(C)O1 (centres unmarked) [DoxQ]
- LogP of DoxQ relative to Dox [1]: 3–5 fold
- LogD7.4 of DoxQ relative to Dox ([1]; pH 7.4): 25 fold
- Cumulative amount of Dox in mesenteric lymph fluid, compared to after Dox [2]: twice as high; also recorded: two-fold higher
- cTnI concentrations in serum ([3]; 10 mg/kg): also had an increase in cTnI at each time point
- AUEC of cTnI concentrations ([3]; 12–48 h after single IV 10 mg/kg Dox or equimolar DoxQ): lower than the AUEC after Dox
- Total urine volume over 24 h [4]: no significant difference
- Cumulative amount of NAG excreted in urine ([5]; 10 mg/kg): lower after IV DoxQ than Dox
- Intact DoxQ in serum after oral dosing (PO DoxQ): not detected
- Inhibition of CYP3A4 [6]: inhibited
- Cellular uptake compared to free Dox [7]: higher cellular uptake
- Anti-cancer activity [8]: retained anti-cancer activity
- Toxicity to cardiomyocytes compared to Dox [9]: less toxic; also recorded: less cardiotoxic than Dox
- Toxicity to cardiomyocytes compared to Dox [10]: less toxic; also recorded: less cardiotoxic than Dox
- Effect on CYP1B1 [11]: inhibitory effects
- Release of Dox and quercetin from DoxQ [12]: controlled release of both Dox and quercetin released from DoxQ over four days
- AUC(0-t) [13]: 18600 ± 1980 ng·h/mL
- CL renal [13]: 0.333 mL/min/kg
- clearance [13]: 8.83 mL/min/kg
- half-life [13]: 9.6 ± 18 min
- k el [13]: 0.00127 s⁻¹
- C0 ([13]; C0, administered compound intact in rat serum, IV Dox 10 mg/kg or equimolar DoxQ, mean ± SEM): ~108000 ng/mL
- Vd ([13]; Vss, administered compound intact, IV Dox 10 mg/kg or equimolar DoxQ, mean ± SEM): 0.138 ± 0.015 L/kg
- AUC of intact DoxQ relative to AUC of Dox after Dox ([14]; IV, equimolar doses): 5 fold
- C0 / serum concentration of intact DoxQ relative to Dox after Dox ([14]; IV, equimolar doses): 4–5 fold and 5 fold
- C0 [14, 16]: 108000 ± 26400 ng/mL
- Clast [14, 16]: 1110 ± 170 ng/mL
- fe, fraction excreted unchanged in urine [14, 17]: ~ 5% and 4.32 ± 1.005%
- Vss ([14]; administered compound intact, IV Dox 10 mg/kg or equimolar DoxQ, mean ± SEM): 0.08 ± 0.015 L/kg
- CLhepatic [14, 18]: 8.5 ± 1 mL/min/kg

Structure (SMILES): COc1cccc2c1C(=O)c1c(O)c3c(c(O)c1C2=O)C[C@@](O)(C(=O)CO)C[C@@H]3O[C@H]1C[C@H](N)[C@H](O)[C@H](C)O1 [Dox, Doxorubicin]
- cTnI concentrations in serum [3]: increase in cTnI
- Total urine volume over 24 h [4]: no significant difference
- Cumulative amount of NAG excreted in urine [5]: higher cumulative amounts
- F, bioavailability (Dox after PO Dox 10 mg/kg, n = 3): 8.57 ± 0.71%
- bioavailability [15]: ~8.5%
- Vss of Dox relative to Vss of DoxQ ([14]; IV, equimolar doses): ~ 80 fold
- C0 [14, 16]: 24700 ± 14200 ng/mL
- Clast [14, 16]: 120 ± 30 ng/mL
- fe, fraction excreted unchanged in urine [14, 17]: ~ 11% and 10.73 ± 3.14%
- CLhepatic [14, 18]: 39.2 ± 6 mL/min/kg
- AUC(0-inf) [14, 19]: 4790 ± 1830 ng·h/mL
- AUC(0-t) [14, 19]: 3970 ± 700 ng·h/mL
- CL renal [14, 19]: 4.67 mL/min/kg
- clearance [14, 19]: 43.8 mL/min/kg
- half-life [14, 19]: 4.69 ± 0.8 h
- k el [14, 19]: 4.44e-05 s⁻¹
- C0 ([14]; male, Sprague-Dawley, rat, serum, iv, 10 mg/kg, C0, administered compound intact in rat serum, IV Dox 10 mg/kg or equimolar DoxQ, mean ± SEM): ~25000 ng/mL
- Vd ([14]; male, Sprague-Dawley, rat, serum, iv, 10 mg/kg, Vss, administered compound intact, IV Dox 10 mg/kg or equimolar DoxQ, mean ± SEM): 6.35 ± 2.11 L/kg
